Among the data in patent publication US20220089592A1, “IMIDAZO[1,2-A]PYRIDINYL DERIVATIVES AS IRAK4 INHIBITORS” (priority 2019, published 2022) are IC50 values, retold here.

This experiment concerns the target T1, IRAK4 (Homo sapiens, UniProt Q9NWZ3).
T1 sequence (Q9NWZ3 1-460): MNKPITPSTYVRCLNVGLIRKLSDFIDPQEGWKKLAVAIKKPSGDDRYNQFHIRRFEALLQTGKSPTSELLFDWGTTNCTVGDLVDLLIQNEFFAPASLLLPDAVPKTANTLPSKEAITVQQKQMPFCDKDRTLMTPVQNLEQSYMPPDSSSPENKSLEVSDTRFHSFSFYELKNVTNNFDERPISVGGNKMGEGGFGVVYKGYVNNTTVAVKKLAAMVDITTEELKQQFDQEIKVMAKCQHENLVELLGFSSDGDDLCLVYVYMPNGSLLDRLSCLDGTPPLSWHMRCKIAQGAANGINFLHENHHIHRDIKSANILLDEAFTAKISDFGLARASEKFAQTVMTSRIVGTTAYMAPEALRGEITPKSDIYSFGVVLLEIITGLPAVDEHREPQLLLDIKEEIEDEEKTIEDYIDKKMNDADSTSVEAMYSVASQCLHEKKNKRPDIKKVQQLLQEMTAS
Nature of the experiment: 2-hour 10 μM ATP Biochemical Assay (MesoScale Detection format; IRAK4 phosphorylation of biotin labeled IRAK1 activation loop peptide). The settings on record: IRAK4 MSD BIOCHEMICAL (10 μM ATP) IC50 (μM), 1 nM IRAK4, 2 hours. Here is the method:
The 2-hour 10 μM ATP Biochemical Assay employs a MesoScale Detection (MSD) format.
The activity is quenched with 11 μl of 70 mM EDTA, pH 8.
To detect the phosphorylated biotinylated peptide substrate, 30 μl of the quenched reaction mixture is added to equivalent wells of a 384 well streptavidin coated MesoScale plate (Meso Scale Discovery #L21SA-1). After a 1 hour incubation of the plate for 1 hour at room temperature with gentle mixing, the plate wells are washed 3 times with 50 mM Tris, pH 7.5, 150 mM NaCl, 0.02% Tween-20.
A 25 μl volume of 1:500 anti-P-Threonine Rabbit polyclonal Antibody plus 1:500 Goat-anti-Rabbit Sulfo Tag Antibody (Meso Scale Discovery R32AB-1) in 50 mM Tris, pH 7.5, 150 mM NaCl, 0.02% Tween-20 plus 2% BSA is then added to each well. After a 1-hour incubation of the plate for 1 hour at room temperature with gentle mixing, the plate wells are washed, 3 times with 50 mM Tris, pH 7.5, 150 mM NaCl, 0.02% Tween-20. A 40 μl volume of 2×MSD Read Buffer (Meso Scale Discovery R92TC-1) is added to each well, and the plate is read immediately in an MSD Plate Reader (Meso Scale Discovery).
With `CCOc1cc2nc(C3CC3)cn2cc1NC(=O)c1cccc(OC(F)(F)F)n1` [Example 118, N-(2-cyclopropyl-7-ethoxyimidazo[1,2-a]pyridin-6-yl)-6-(trifluoromethoxy)picolinamide], 0.063 µM corresponded to half-maximal inhibition (IC50).

Consider `CCOc1cc2nc(C3CC3)cn2cc1NC(=O)c1cncc(C(F)(F)F)n1` [Example 120, N-(2-cyclopropyl-7-ethoxyimidazo[1,2-a]pyridin-6-yl)-6-(trifluoromethyl)pyrazine-2-carboxamide], for which the midpoint of inhibition, the IC50, lay at 0.028 µM.

As for `CCOc1cc2nc(CN3CCOCC3)cn2cc1NC(=O)c1cccc(C(F)F)n1` [Example 121, 6-(difluoromethyl)-N-(7-ethoxy-2-(morpholinomethyl)imidazo[1,2-a]pyridin-6-yl)picolinamide], the IC50 (as a rule, the concentration that inhibits the measured activity by half) worked out at 2.21 µM.

For the compound `CCOc1cc2nc(C(=O)N3CCOCC3)cn2cc1NC(=O)c1cccc(C(F)F)n1` [Example 126, 6-(difluoromethyl)-N-(7-ethoxy-2-(morpholine-4-carbonyl)imidazo[1,2-a]pyridin-6-yl)picolinamide], the IC50 was found to be 0.35 µM.

Consider `CCOc1cc2nc(C34CC(C(C)(C)O)(C3)C4)cn2cc1NC(=O)c1cccc(C(F)F)n1` [Example 129, 6-(difluoromethyl)-N-(7-ethoxy-2-(3-(2-hydroxypropan-2-yl)bicyclo[1.1.1]pentan-1-yl)imidazo[1,2-a]pyridin-6-yl)picolinamide], for which the IC50 was 0.001 µM.

`CCOc1cc2nc(C3CC3)cn2cc1NC(=O)c1cccc(C2(O)CCC2)n1` [Example 132, N-(2-cyclopropyl-7-ethoxyimidazo[1,2-a]pyridin-6-yl)-6-(1-hydroxycyclobutyl)picolinamide]: half-maximal inhibition (IC50) required 0.018 µM.

Take `CN(C)CCOc1cc2nc(C3CCOCC3)cn2cc1NC(=O)c1cccc(C(F)F)n1` [Example 148, 6-(difluoromethyl)-N-(7-(2-(dimethylamino)ethoxy)-2-(tetrahydro-2H-pyran-4-yl)imidazo[1,2-a]pyridin-6-yl)picolinamide]: inhibition was half-maximal at 0.023 µM (IC50).

As for `CCOc1cc2nc(CC3CCOC3)cn2cc1NC(=O)c1nc(C)co1` (stereo not shown) [Example 154, N-(7-ethoxy-2-((tetrahydrofuran-3-yl)methyl)imidazo[1,2-a]pyridin-6-yl)-4-methyloxazole-2-carboxamide], the IC50 came to 0.22 µM.

For `CCOc1cc2nc(CC3CCOC3)cn2cc1NC(=O)c1cn(C)cn1` (stereo not shown) [Example 157, N-(7-ethoxy-2-((tetrahydrofuran-3-yl)methyl)imidazo[1,2-a]pyridin-6-yl)-1-methyl-1H-imidazole-4-carboxamide], the IC50 was 2.3 µM.

The compound `CCOc1cc2nc(CC3CCOC3)cn2cc1NC(=O)c1nc(C)no1` (stereo not shown) [Example 158, N-(7-ethoxy-2-((tetrahydrofuran-3-yl)methyl)imidazo[1,2-a]pyridin-6-yl)-3-methyl-1,2,4-oxadiazole-5-carboxamide] had an IC50 of 2.9 µM.

As for `CC1(COc2cc3nc(C4CCOCC4)cn3cc2NC(=O)c2cnn(C(F)F)c2)COC1` [Example 161, 1-(difluoromethyl)-N-(7-((3-methyloxetan-3-yl)methoxy)-2-(tetrahydro-2H-pyran-4-yl)imidazo[1,2-a]pyridin-6-yl)-1H-pyrazole-4-carboxamide], half-maximal inhibition (IC50) was put at 0.4 µM.

For the compound `O=C(Nc1cn2cc(C3CCOCC3)nc2cn1)c1cnn(C(F)F)c1` [Example 162, 1-(difluoromethyl)-N-(2-(tetrahydro-2H-pyran-4-yl)imidazo[1,2-a]pyrazin-6-yl)-1H-pyrazole-4-carboxamide], the IC50 was determined as 0.37 µM.

Compound `CC(C)Oc1cc2nc(C3CCOCC3)cn2cc1NC(=O)c1cccc(C(F)F)n1` [Example 167, 6-(difluoromethyl)-N-(7-isopropoxy-2-(tetrahydro-2H-pyran-4-yl)imidazo[1,2-a]pyridin-6-yl)picolinamide] yielded an IC50 of 0.001 µM.

`O=C(Nc1cn2cc(C3CCOCC3)nc2cc1OC1CCCC1)c1cccc(C(F)F)n1` [Example 175, N-(7-(cyclopentyloxy)-2-(tetrahydro-2H-pyran-4-yl)imidazo[1,2-a]pyridin-6-yl)-6-(difluoromethyl)picolinamide] displayed an IC50 of 0.001 µM.

Consider `O=C(Nc1cn2cc(C3CCOCC3)nc2cc1OC1CCC1)c1cccc(C(F)F)n1` [Example 176, N-(7-cyclobutoxy-2-(tetrahydro-2H-pyran-4-yl)imidazo[1,2-a]pyridin-6-yl)-6-(difluoromethyl)picolinamide], for which the IC50 stood at 0.001 µM.

For the compound `CCOc1cc2nc(C3CCOCC3)cn2cc1NC(=O)c1ccn(C(C)(C)C)n1` [Example 207, 1-(tert-butyl)-N-(7-ethoxy-2-(tetrahydro-2H-pyran-4-yl)imidazo[1,2-a]pyridin-6-yl)-1H-pyrazole-3-carboxamide], the IC50 is 0.021 µM.

Consider `CCOc1cc2nc(C3CCOCC3)cn2cc1NC(=O)c1ccccc1F` [Example 212, N-(7-ethoxy-2-(tetrahydro-2H-pyran-4-yl)imidazo[1,2-a]pyridin-6-yl)-2-fluorobenzamide], for which half-maximal inhibition (IC50) was put at 0.022 µM.

Compound `CCOc1cc2nc(C3CCOCC3)cn2cc1NC(=O)c1ccnc(OC)n1` [Example 226, N-(7-ethoxy-2-(tetrahydro-2H-pyran-4-yl)imidazo[1,2-a]pyridin-6-yl)-2-methoxypyrimidine-4-carboxamide] returned a half-inhibitory concentration (IC50) of 0.035 µM.

Take `CCOc1cc2nc(C3CCOCC3)cn2cc1NC(=O)c1cccc(C)c1` [Example 229, N-(7-ethoxy-2-(tetrahydro-2H-pyran-4-yl)imidazo[1,2-a]pyridin-6-yl)-3-methylbenzamide]: the IC50 came to 0.025 µM.

Take `CCOc1cc2nc(C(C)(C)C#N)cn2cc1NC(=O)c1cccc(C(F)CF)n1` (stereo not shown) [Example 245, N-(2-(2-cyanopropan-2-yl)-7-ethoxyimidazo[1,2-a]pyridin-6-yl)-6-(1,2-difluoroethyl)picolinamide]: it took 0.002 µM to reach half-maximal inhibition (IC50).

`CCOc1cc2nc(C3CN(CC(F)F)C3)cn2cc1NC(=O)c1ccn(CC(F)F)n1` [Example 291, 1-(2,2-difluoroethyl)-N-(2-(1-(2,2-difluoroethyl)azetidin-3-yl)-7-ethoxyimidazo[1,2-a]pyridin-6-yl)-1H-pyrazole-3-carboxamide] came in with an IC50 of 0.003 µM.

`O=C(Nc1cn2cc(C3CCOCC3)nc2cc1F)c1cccc(C(F)F)n1` [Example 293, 6-(difluoromethyl)-N-(7-fluoro-2-(tetrahydro-2H-pyran-4-yl)imidazo[1,2-a]pyridin-6-yl)picolinamide] returned an IC50 of 0.031 µM.

`COc1cc(NC(=O)c2csc(C)n2)cn2cc(C3CCOCC3)nc12` [Example 305, N-(8-methoxy-2-(tetrahydro-2H-pyran-4-yl)imidazo[1,2-a]pyridin-6-yl)-2-methylthiazole-4-carboxamide] returned an IC50 of 0.026 µM.

Consider `CCOc1cc2nc(C3CCOCC3)cn2cc1NC(=O)c1cccc(OCC(F)(F)F)n1` [Example 363, N-(7-ethoxy-2-(tetrahydro-2H-pyran-4-yl)imidazo[1,2-a]pyridin-6-yl)-6-(2,2,2-trifluoroethoxy)picolinamide], for which it took 0.029 µM to reach half-maximal inhibition (IC50).

Turning to `Cc1cc(NC(=O)c2cccc(C(F)F)n2)cn2cc(C3CCOCC3)nc12` [Example 410, 6-(difluoromethyl)-N-(8-methyl-2-(tetrahydro-2H-pyran-4-yl)imidazo[1,2-a]pyridin-6-yl)picolinamide 2,2,2-trifluoroacetate], half-maximal inhibition (IC50) required 0.011 µM.
